Experimental findings from patent publication US11725015B2, “Macrocyclic compound and uses thereof” (President and Fellows of Harvard College, priority 2017, dated 2023) are described below.

Assay [1] has as its system HEC-108 (human endometrial cancer) xenograft. The assay can be described thus: Antitumor effects in HEC-108 endometrial cancer xenograft model in mice as monotherapy. The assay is classed as in vivo. The following applies: 180 μg/kg intravenously on Day 1 and Day 8. The procedure: A human endometrial cancer cell line HEC-108, which had been cultured in an E-MEM containing 15% FBS and antibiotics were adjusted to a concentration of 7.14×10^7 cells/mL with medium to prepare a cell suspension. The cell suspension was inoculated in a volume of 150 μL into a subcutaneous part of a right flank of athymic mice (CAnN.Cg-Foxnlnu/CrlCrlj, female, 6 weeks old, Charles River Japan Inc.). Thirteen days after cell inoculation (Day 1), the length and the width of a tumor in each mouse were measured by using an electronic digital caliper (Mitutoyo Corporation), so as to calculate the volume of the tumor in accordance with the following calculation formula: Tumor volume (mm^3)=Longest diameter (mm)×Shortest diameter (mm)×Shortest diameter (mm)/2 Relative tumor volume (RTV)=Tumor volume (day X)/Tumor volume (the first day)
On the basis of TV, the mice were randomly grouped (Day 1). Each group was consisted in six mice. Compound (1) was dissolved in DMSO and a solution was stored in the freezer before use. Compound (1) (180 μg/kg) was diluted in saline and intravenously injected on Day 1 and Day 8.

The test system of assay [2] is TE-8 (human squamous cell carcinoma of the esophagus). As to the kind of experiment: In vitro antiproliferative activity, TE-8. The assay is classed as cell-based. The settings on record: TE-8, 72 hours. The method, then: The in vitro antiproliferative assays for Compound (1) were conducted using a small panel of cancer cell lines including human squamous cell carcinoma of the esophagus (OE21, TE-8), human adenocarcinoma of the esophagus (OE33), and human uterine sarcoma (MES-SA, MES-SA-Dx5-Rx1). All cell lines were cultured in RPMI-1640 medium containing 10% FBS, and penicillin-streptomycin (culture medium), in a 5% CO2 incubator (37° C.). To each well of a 96 well plate (Becton, Dickinson and Company, 353219), 75 μL of cell suspension adjusted to a concentration of 4×10^4 cells/mL with the culture medium was added, and the cells were incubated overnight in a 5% CO2 incubator (37° C.). On the next day, 25 μL of Compound (1) in three-fold dilution series suspended in the culture medium was added to each well, and the resultant was incubated for 72 hours in a 5% CO2 incubator (37° C.). Then, cell viability was determined by CellTiter-Glo® Luminescent Cell Viability Assay (Promega) with 2013 EnVision™ Multilabel Reader (Perkin-Elmer, Wellesley, Mass.). Value of the wells containing cells without adding the test compounds was defined as 100% and the value of the wells containing no cells was defined as 0%. […] The P-gp susceptibility was calculated as the ratio of the IC50 value in MES-SA-Dx5-Rx1 cells, which overexpress P-gp, to the IC50 value in MES-SA cells.

Assay [3] relates to MES-SA (human uterine sarcoma) xenograft. The assay can be described thus: Antitumor effects in MES-SA soft tissue sarcoma xenograft model in mice as monotherapy. The assay is classed as in vivo. The following applies: 180 μg/kg intravenously on Day 1 and Day 8. The method, then:
A human uterine sarcoma cell line MES-SA, which had been cultured in an RPMI-1640 containing 10% FBS, and penicillin-streptomycin, was adjusted to a concentration of 2×10^8 cells/mL with Hanks' Balanced Salt Solution to prepare a cell suspension, and the suspension was mixed with Geltrex® (Thermo Fisher Scientific Inc., #A1413202) in a ratio of 1:1 to prepare a cell suspension in a concentration of 1×10^8 cells/mL. The cell suspension was inoculated in a volume of 100 μL into a subcutaneous part of a right flank of nude mice, 6 weeks of ages (CAnN.Cg-Foxnlnu/CrlCrlj, female, Charles River Laboratories Japan Inc.). Six days after cell inoculation (Day 1), the shortest diameter and the longest diameter of a tumor in each mouse were measured by using an electronic digital caliper (Digimatic™ caliper, Mitutoyo Corporation), so as to calculate the volume of the tumor in accordance with the following calculation formulae: Tumor volume (mm^3)=Longest diameter (mm)×Shortest diameter (mm)×Shortest diameter (mm)/2 Relative tumor volume (RTV)=Tumor volume (day X)/Tumor volume (the first day)
On the basis of the volumes of tumors obtained on Day 1, the mice were grouped such that averages of the tumor volumes were substantially equal among the groups. The experiment was conducted on groups each consisting of 6 mice. […]

The next assay concerns Tenascin-C. As to the kind of experiment: Effect on Tenascin-C in the FaDu subcutaneous model in mice. The assay is classed as in vivo. The following applies: Compound (1) 180 μg/kg + CTX 10 mg/kg on Day 1, five days after, compared with control tumors. The method, then:
(§1) A human squamous cell carcinoma of the head and neck (SCCHN) cell line FaDu, which had been cultured in an RPMI-1640 medium containing 10% FBS, and penicillin-streptomycin (culture medium), was adjusted to a concentration of 5×10^7 cells/mL with culture medium to prepare a cell suspension. The cell suspension was inoculated in a volume of 100 μL into a subcutaneous part of a right flank of nude mice, 6 weeks of ages (CAnN.Cg-Foxnlnu/CrlCrlj, female, Charles River Laboratories Japan, Inc.). Ten days after cell inoculation, the mice were grouped such that averages of the tumor volumes were substantially equal among the groups. The experiment was conducted on groups each consisting of 5 mice. Compound (1) was dissolved in DMSO and a solution was stored in the freezer before use. […] Five days after the single administration, tumor samples were collected and fixed with IHC Zinc Fixative (BD Pharmingen) at 4° C. for 24 hr. Paraffin-embedded tissues were sectioned (3 μm), mounted on positively charged slides, and air-dried. Sections were deparaffinized, conditioned and the antigens were retrieved using microwave with 1 mM EDTA at pH 6.0 for Tenascin-C. For EDA-fibronectin, the antigens retrieval procedure was not necessary. […]

The next assay relates to EDA-fibronectin. The assay can be described thus: Effect on EDA-fibronectin in the FaDu subcutaneous model in mice. The assay is classed as in vivo. The following applies: Compound (1) 180 μg/kg + CTX 10 mg/kg on Day 1, five days after, compared with control tumors. The procedure:
as §1

As to `C=C1C[C@@H]2CC[C@@]34C[C@H]5O[C@H]6[C@@H](O3)[C@H]3O[C@H](CC[C@@H]3O[C@H]6C5O4)CC(=O)O[C@@H]3[C@@H](C)[C@@H]4O[C@@H]5C[C@]6(C[C@@H]7O[C@]8(C[C@H](C)[C@@H]9O[C@H](CN)[C@H](O)C[C@@H]9O8)C[C@H](C)[C@@H]7O6)O[C@@H]5C[C@@H]4O[C@H]3C[C@H]3O[C@@H](CC[C@@H]1O2)C[C@@H](C)C3=C` [Compound (1)], the antitumor activity result in assay [1] and in assay [3] was “tumor growth delay” each time. Moreover, in assay [2], the antiproliferative activity result was “potent antiproliferative agent”. Besides, the “expression level of Tenascin-C” value in the assay with Tenascin-C is listed as “reduced”. Besides, the “expression level of ED-A fibronectin” value with EDA-fibronectin is “reduced”.
